Assays:
[1] = system: A549 human lung carcinoma cells; type: cell-based; conditions: 5 μM ST-246
[2] = A549 xenograft: average body weight; conditions: 2.5 μM ST-246
[3] = system: A549 human lung carcinoma xenografts; test: A549 xenograft: tumor volume; type: in vivo, mouse; conditions: 2.5 μM ST-246 in addition to LIVP 5.1.1 or GLV-1h68

O=C(NN1C(=O)[C@@H]2[C@@H]3C=C[C@@H]([C@H]4C[C@@H]34)[C@@H]2C1=O)c1ccc(C(F)(F)F)cc1 [ST-246]
effect of ST-246 on eradication of A549 cells by LIVP 5.1.1 and GLV-1h68 [1]: reduced the eradication of A549 cells | effect of ST-246 on toxicity of virus [2]: reduced toxicity | effect of ST-246 on tumor reduction by virus [3]: decreased the ability of each virus to reduce tumor size
